A word on the IC50: it is the concentration needed to halve the response being measured.

The structures appear in SMILES notation. Converted amounts (≈) assume the structure as drawn.

One series has as its system A549. Kind of series: Antiproliferative activity against human A549 cells after 5 days by MTT assay. The settings on record: A549, 120 h. In general terms: Tetrazolium assays rely on reduction of a dye to a coloured formazan, in cell work by metabolically active cells.
The test system of another series is L929. Kind of series: Antiproliferative activity against mouse L929 cells after 5 days by SRB assay. Type of series: cell-based. The note with it: L929, 120 h. (In general: The SRB assay estimates cell density from bound dye.)
Series [1] in a line: Antiproliferative activity against human KB31 cells after 5 days by MTT assay. The settings on record: KB 3-1, 120 h.
A further series relates to SW480. Kind of series: Antiproliferative activity against human SW480 cells after 5 days by MTT assay. The settings on record: SW480, 120 h.
A short description of series [2]: Toxicity in brine shrimp after 24 hrs. The format is organism-based. The settings on record: artemia, in vivo; read-out: LD50.
Series [3] in a line: Toxicity in brine shrimp after 48 hrs. The note with it: artemia, in vivo; read-out: LD50. The format is organism-based.

Regarding `COC(=O)C1=CO[C@@H]2O[C@H]3/C(=C\c4ccc(OC(C)=O)cc4)C(=O)O[C@]34C=C[C@H]1[C@H]24`, the IC50 with A549 was 1600 nM; in the series on L929 it was 410 nM; in series [1], 350 nM; with SW480 it was 84 nM.
As to `COC(=O)C1=CO[C@H](O[C@@H]2O[C@H](CO)[C@@H](O)[C@H](O)[C@H]2O)[C@H]2[C@@H]1C=C[C@@]21C=C(C(O)c2ccc(O)cc2)C(=O)O1` (stereo partly specified) [GAERTNEROSIDE], the LC50 at 24 h in series [2] amounted to 0.38 µg/mL (≈ 0.693 µM). In addition, the LC50 at 48 h in series [3] turned out to be 224 nM.

(Values after ChEMBL document CHEMBL1141258, “Prismatomerin, a new iridoid from Prismatomeris tetrandra. Structure elucidation, determination of absolute configuration, and cytotoxicity” (J Nat Prod, 2007).)
